target: T1, human mGlu 5a receptor (Homo sapiens, UniProt P41594); assay: [3H]MPEP competition binding on membranes of EBNA cells transfected with human mGlu 5a receptor; conditions: competition with [3H]MPEP (2 nM), 1 h at 4° C., human mGlu 5a receptor membranes; read-out: Ki (mGluR5)
T1 construct: expressed in transfected cells; host or cells: EBNA cells (transient transfection), cell membrane homogenates
Experimental: The pharmacological activity of the compounds was tested using the following method: For binding experiments, cDNA encoding human mGlu 5a receptor was transiently transfected into EBNA cells using a procedure described by Schlaeger and Christensen [Cytotechnology 15:1-13 (1998)]. Cell membrane homogenates were stored at −80° C. until the day of assay where upon they were thawed and resuspended and polytronized in 15 mM Tris-HCl, 120 mM NaCl, 100 mM KCl, 25 mM CaCl2, 25 mM MgCl2 binding buffer at pH 7.4 to a final assay concentration of 20 μg protein/well.
Saturation isotherms were determined by addition of twelve [^3H]MPEP concentrations (0.04-100 nM) to these membranes (in a total volume of 200 μl) for 1 h at 4° C. Competition experiments were performed with a fixed concentration of [^3H]MPEP (2 nM), and IC50 values of test compounds evaluated using 11 concentrations (0.3-10,000 nM). Incubations were performed for 1 h at 4° C.
At the end of the incubation, membranes were filtered onto unifilter (96-well white microplate with bonded GF/C filter preincubated 1 h in 0.1% PEI in wash buffer, Packard Bio-Science, Meriden, Conn.) with a Filtermate 96 harvester (Packard BioScience) and washed 3 times with cold 50 mM Tris-HCl, pH 7.4 buffer. Nonspecific binding was measured in the presence of 10 μM MPEP. The radioactivity on the filter was counted (3 min) on a Packard Top-count microplate scintillation counter with quenching correction after addition of 45 μl of microscint 40 (Canberra Packard S. A., Zürich, Switzerland) and shaking for 20 min.
The inhibition (antagonists) curves were fitted with a four parameter logistic equation giving IC50, and Hill coefficient using iterative non linear curve fitting software (Xcel fit).
For binding experiments the Ki values of the compounds tested are given. The Ki value is defined by the following formula: Ki=IC50/[1+L/Kd] in which the IC50 values are those concentrations of the compounds tested which cause 50% inhibition of the competing radioligand ([^3H]MPEP). L is the concentration of radioligand used in the binding experiment and the Kd value of the radioligand is empirically determined for each batch of membranes prepared.

T1 sequence (P41594 21-1180 isoform P41594-2 limits assumed): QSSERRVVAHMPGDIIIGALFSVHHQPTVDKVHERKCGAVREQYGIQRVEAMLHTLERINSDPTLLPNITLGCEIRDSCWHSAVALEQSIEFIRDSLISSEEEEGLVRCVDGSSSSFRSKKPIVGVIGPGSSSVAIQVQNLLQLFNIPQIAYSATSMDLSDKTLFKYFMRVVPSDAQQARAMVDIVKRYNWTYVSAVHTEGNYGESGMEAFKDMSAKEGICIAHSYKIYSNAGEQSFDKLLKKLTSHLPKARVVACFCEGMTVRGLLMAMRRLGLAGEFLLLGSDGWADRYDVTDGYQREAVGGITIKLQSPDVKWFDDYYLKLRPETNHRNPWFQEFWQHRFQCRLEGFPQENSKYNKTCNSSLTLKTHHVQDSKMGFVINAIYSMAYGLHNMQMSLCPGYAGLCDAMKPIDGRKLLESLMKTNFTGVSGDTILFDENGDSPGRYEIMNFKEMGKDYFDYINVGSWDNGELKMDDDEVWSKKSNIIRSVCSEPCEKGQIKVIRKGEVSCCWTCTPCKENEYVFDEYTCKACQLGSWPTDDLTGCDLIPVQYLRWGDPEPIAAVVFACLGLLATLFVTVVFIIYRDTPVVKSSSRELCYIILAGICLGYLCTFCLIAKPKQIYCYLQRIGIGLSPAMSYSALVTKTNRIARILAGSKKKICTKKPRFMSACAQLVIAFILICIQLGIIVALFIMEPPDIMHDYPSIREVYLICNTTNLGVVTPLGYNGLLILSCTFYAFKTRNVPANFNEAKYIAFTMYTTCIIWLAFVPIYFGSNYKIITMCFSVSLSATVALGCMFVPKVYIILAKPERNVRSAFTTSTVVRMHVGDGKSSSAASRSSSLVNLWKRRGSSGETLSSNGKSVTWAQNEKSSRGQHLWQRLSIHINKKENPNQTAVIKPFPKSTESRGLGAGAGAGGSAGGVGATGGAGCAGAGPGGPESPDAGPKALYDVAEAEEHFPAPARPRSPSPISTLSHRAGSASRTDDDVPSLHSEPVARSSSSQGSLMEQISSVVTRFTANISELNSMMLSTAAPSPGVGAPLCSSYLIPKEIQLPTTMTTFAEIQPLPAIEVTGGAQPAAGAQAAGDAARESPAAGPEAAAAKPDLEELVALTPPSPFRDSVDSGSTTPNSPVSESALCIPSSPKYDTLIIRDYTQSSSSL

Molecule	Ki [µM]
6-Methyl-3-(1-methyl-1H-pyrazol-4-ylamino)-pyridine-2-carboxylic acid (5-fluoro-pyridin-2-yl)-amide [Example 96]	0.057
Cc1ccc(Nc2cncnc2)c(C(=O)Nc2cccc(Cl)c2)n1 [Example 2, 6-Methyl-3-(pyrimidin-5-ylamino)-pyridine-2-carboxylic acid (3-chloro-phenyl)-amide]	0.03
Cc1ccc(Nc2cccnc2)c(C(=O)Nc2ccnc(Cl)c2)n1 [Example 4, 6-Methyl-3-(pyridin-3-ylamino)-pyridine-2-carboxylic acid (2-chloro-pyridin-4-yl)-amide]	0.042
Cc1ccc(Nc2cccnc2)c(C(=O)Nc2nc(C(F)(F)F)cs2)n1 [Example 18, 6-Methyl-3-(pyridin-3-ylamino)-pyridine-2-carboxylic acid (4-trifluoromethyl-thiazol-2-yl)-amide]	0.078
Cc1cc(NC(=O)c2nc(C)ccc2Nc2cncc(C#N)c2)ccn1 [Example 22, 3-(5-Cyano-pyridin-3-ylamino)-6-methyl-pyridine-2-carboxylic acid (2-methyl-pyridin-4-yl)-amide]	0.066
Cc1ccc(Nc2cncc(C(F)(F)F)c2)c(C(=O)Nc2ccn(C)n2)n1 [Example 51, 6-Methyl-3-(5-trifluoromethyl-pyridin-3-ylamino)-pyridine-2-carboxylic acid (1-methyl-1H-pyrazol-3-yl)-amide]	0.082
Cc1ccc(Nc2cccc(F)c2)c(C(=O)Nc2ccc(F)c(C)n2)n1 [Example 54, 3-(3-Fluoro-phenylamino)-6-methyl-pyridine-2-carboxylic acid (5-fluoro-6-methyl-pyridin-2-yl)-amide]	0.055
Cc1ccc(Nc2cccc(C#N)c2)c(C(=O)Nc2nc(C(F)(F)F)cs2)n1 [Example 60, 3-(3-Cyano-phenylamino)-6-methyl-pyridine-2-carboxylic acid (4-trifluoromethyl-thiazol-2-yl)-amide]	0.367
Cc1ccc(Nc2cncnc2)c(C(=O)Nc2ncc(C)s2)n1 [Example 106, 6-Methyl-3-(pyrimidin-5-ylamino)-pyridine-2-carboxylic acid (5-methyl-thiazol-2-yl)-amide]	0.056

Stronger by Ki, values ahead:

Ki [µM]	Molecule
0.021	Cc1ccc(Nc2cccnc2)c(C(=O)Nc2ccc(F)cn2)n1 [Example 8, 6-Methyl-3-(pyridin-3-ylamino)-pyridine-2-carboxylic acid (5-fluoro-pyridin-2-yl)-amide]
0.028	Cc1csc(NC(=O)c2nc(C)ccc2Nc2cccnc2)n1 [Example 14, 6-Methyl-3-(pyridin-3-ylamino)-pyridine-2-carboxylic acid (4-methyl-thiazol-2-yl)-amide]
0.027	Cc1ccc(Nc2cccnc2)c(C(=O)Nc2ccn(C)n2)n1 [Example 16, 6-Methyl-3-(pyridin-3-ylamino)-pyridine-2-carboxylic acid (1-methyl-1H-pyrazol-3-yl)-amide]
0.01	Cc1ccc(Nc2ccnn2C)c(C(=O)Nc2csc(C)n2)n1 [Example 92, 6-Methyl-3-(2-methyl-2H-pyrazol-3-ylamino)-pyridine-2-carboxylic acid (2-methyl-thiazol-4-yl)-amide]
0.014	Cc1ccc(Nc2cc(C3CC3)nn2C)c(C(=O)Nc2ccc(F)c(C)n2)n1 [Example 103, 3-(5-Cyclopropyl-2-methyl-2H-pyrazol-3-ylamino)-6-methyl-pyridine-2-carboxylic acid (5-fluoro-6-methyl-pyridin-2-yl)-amide]
